{
  "source": "patent US20190105369A1",
  "about": "“CD31SHED AGONISTS FOR USE IN THE PREVENTION AND/OR TREATMENT OF REPERFUSION INJURY” (INSTITUT NATIONAL DE LA SANTE ET DE LA RECHERCHE MEDICAL …, priority 2016, published 2019)",
  "key": {"human platelet": {"test_system": "human platelet", "conditions": "cited from earlier work"}, "thrombin generation": {"test_system": "thrombin generation", "conditions": "cited from earlier work"}, "Rats": {"test_system": "Rats", "experiment": "Model of mesenteric ischemia-reperfusion (mesenteric artery clamped 30 minutes, reperfusion 4 hours)", "assay_type": "in vivo", "procedure": "Rats are anesthetized by urethane I.P. A catheter is introduced in the right jugular vein for venous sampling, treatment administration, and solute perfusion (NaCl 0.9%, 10 μl/H/g b.w.) during all the experimental period. A catheter is introduced in the left internal carotid artery for arterial blood pressure monitoring and another one in the bladder for urine collection. […] The aortic ostium of the mesenteric artery is controlled. The intravenous administration of the peptide is initiated 5 minutes before clamping the mesenteric artery and after blood sampling (T0). Then, the mesenteric artery is clamped (total occlusion) for 30 minutes creating mesenteric ischemia. Blood sampling is performed at the end of the mesenteric ischemia period (T0.5). The mesenteric artery is then unclamped and reperfusion is follow-up to 4 hours. New blood samplings are performed each hour (T1.5, 2.5, 3.5, 4.5). The animal is sacrificed at the end of the experimental period after a last blood sampling. Urines are collected and diuresis measured each hour. At sacrifice, the ischemic intestine is sampled. One fragment is extruded in order to measure hemoglobin content. The other one is fixed in paraformaldehyde for histology. Several intermediary biological criteria are use in order to characterize the ischemia-reperfusion injury and to evaluate the beneficial effect of the CD31^shed agonist peptide: plasma and urinary free DNA (Picogreen fluorescent intercalant, Invitrogen), from neutrophil origin, traducing neutrophil activation and death, intra-intestinal lumen hemoglobin content (acid formic reaction, Calbiochem kit), traducing epithelial injury, Myeloperoxidase (MPO) content in the intestinal mucosa, reflecting the local accumulation and activation of neutrophils, plasma soluble p-selectin and MMP9 content, reflecting systemic neutrophil activation, as p-selectin is released by a cleavage from the surface of activated neutrophils (and platelets) and MMP9 is contained in the azurofilic granules of the neutrophils and is released early upon neutrophil degranulation. Finally, the extent of mucin film protection was evaluated by histology of the intestinal wall (Alcian blue staining)."}, "[1]": {"test_system": "apolipoprotein E knockout mice", "experiment": "Model of myocardial ischemia-reperfusion (coronary artery ligation 45 min, reperfusion 24 h)", "assay_type": "in vivo", "procedure": "FIG. 2: Effect of P8RI (10 mg/Kg P8RI by subcutaneous injection, 2 minutes prior to reperfusion) on the area at risk and size of myocardial infarction in apolipoprotein E knockout mice (female, 18 week-old) subjected to 45 minutes of ischemia by ligation of the coronary artery, followed by 24 hours of reperfusion. […] P8RI: mice receiving P8RI (n=5); Control: mice receiving a similar volume of vehicle (PBS) without P8RI (n=5). T-Test.\nIn order to reproduce the ischemia-reperfusion injury in the setting of coronary atherosclerosis (as it occurs in patients) were used 18 week-old female apolipoprotein E knockout mice (N=12/group) which typically develop coronary atherosclerosis by the age of 16 week (Caligiuri et al., Atherosclerosis. 1999 August;145(2):301-8). Mice were subjected to surgical ligation of the left main coronary artery, according to the method described by Michael et al. (Am J Physiol. 1995 December;269(6 Pt 2):H2147-54). After 43 minutes of ischemia, the mice received either P8RI (10 mg/kg) or the vehicle (PBS) by subcutaneous injection and 2 minutes later the ischemic area was reperfused by reopening of the ligated coronary artery. The next day, the mice were re-anesthetized, the chest reopened and the coronary ligature re-tied; the coronary tree was then rinsed with 2 ml of PBS pushed in the coronary tree through retrograde cannulation of the left carotid artery and the non-ischemic area stained by the injection of 50 μl of evan's blue (3% in PBS) in the same cannula. The heart was then quickly removed from the chest and immersed in a saturated KCl solution (to stop the heart in diastole) and rinsed in PBS. […] Each slice was photographed and the area at risk (AAR, negatively stained by the evan's blue) and the necrotic area (MI, negatively stained in red by the TTC solution) were then measured by computer-assisted image analysis.\nThe AAR, expressed as % of the left ventricle (LV) surface and the necrotic area (MI, expressed as percentage of the AAR and of the LV) were calculated on each slice. The data shown in FIG. 2 are expressed as mean±SEM."}, "[2]": {"conditions": "intravenous perfusion, vs controls"}, "[3]": {"conditions": "mesenteric artery transient occlusion model"}, "[4]": {"conditions": "10 mg/kg subcutaneous, 2 minutes prior to reperfusion, 24 hours of reperfusion, vs vehicle (PBS)"}},
  "note": "Entries after “also recorded” stand apart in the source; their conditions may differ. Non-standard residues stand in square brackets, D forms with d. No end group written: not given here.",
  "data": [
    {"substance": "kwpalfvr ([dK][dW][dP][dA][dL][dF][dV][dR]) [Peptide P8RI, CD31shed agonist]", "values": [
      {"measurement": "human platelet aggregation", "setting": "human platelet", "value": "reduces"},
      {"measurement": "thrombin generation", "setting": "thrombin generation", "value": "reduces"},
      {"measurement": "hemoglobin content in the intestine lumen", "setting": "Rats; intravenous perfusion, at sacrifice, controls 317.1±93.27", "value": "129.4±47.39", "unit": "μg/mg prot"},
      {"measurement": "epithelial villosity abrasion, epithelium desquamation", "setting": "Rats; intravenous perfusion, histology", "value": "protect"},
      {"measurement": "mucin / mucus film integrity (histology of the intestinal wall, Alcian blue staining)", "setting": "Rats; intravenous perfusion, vs control rats, data not shown", "value": "histological conservation of mucus; also recorded: preserved most of the mucin film"},
      {"measurement": "free hemoglobin within the intestinal lumen (ratio, normalized by total protein content)", "setting": "Rats; [2]", "value": "decreased"},
      {"measurement": "free myeloperoxidase MPO in the intestinal mucosa (direct ELISA, optical density)", "setting": "Rats; [2]", "value": "decreased; also recorded: significantly decrease"},
      {"measurement": "plasma MMP9, cumulative concentration (area under the curve of the different time points)", "setting": "Rats; [2]", "value": "decreased; also recorded: significantly decrease"},
      {"measurement": "free DNA in the plasma over time", "setting": "Rats; intravenous, initiated 5 minutes before clamping, vs control rats", "value": "arrest of the progressive increase; also recorded: remains low and similar to sham-operated rats; also recorded: significantly reduces the progressive increase"},
      {"measurement": "urinary free DNA", "setting": "Rats; intravenous, initiated 5 minutes before clamping, vs controls", "value": "reduced; also recorded: significantly reduces the progressive increase"},
      {"measurement": "LPS secretion in blood", "setting": "Rats; [3]", "value": "decrease"},
      {"measurement": "bacterial translocation", "setting": "Rats; [3]", "value": "prevented"},
      {"measurement": "intestinal necrosis", "setting": "Rats; [3]", "value": "prevented"},
      {"measurement": "size of myocardial infarction (MI) as percentage of the area at risk (AAR)", "setting": "[1]; [4]", "value": "significantly effective in reducing"},
      {"measurement": "size of myocardial infarction (MI) as percentage of the left ventricle (LV)", "setting": "[1]; [4]", "value": "significantly effective in reducing"},
      {"measurement": "size of the necrotic areas", "setting": "[1]; administration during the ischemia-reperfusion period, vs non-treated control mouse", "value": "strongly decrease"}
    ]}
  ]
}
